According to US20040002476A1, “Modified fluorinated nucleoside analogues” (priority 2002, published 2004):
Where two headings read alike, the source gives them in different places.

Tested on: HCV replicon
Experiment: HCV replicon system in Huh7 cells (Q-RT-PCR of replicon RNA)
Conditions: Hepatitis C virus, Huh-7, 96 h
[1] = read-out: average EC90 value, corrected for cellular toxicity (ΔΔCt vs rDNA/rRNA)

Description: Antiviral testing of candidate compounds for Flaviviridae: The HCV replicon system in Huh7 cells.
Add the test compound immediate after seeding the cells and incubate for a period of 3 to 7 days at 37° C. in an incubator. Media is then removed, and the cells are prepared for total nucleic acid extraction (including replicon RNA and host RNA). Replicon RNA can then be amplified in a Q-RT-PCR protocol, and quantified accordingly. […] In such experiments, one way to express the antiviral effectiveness of a compound is to subtract the threshold RT-PCR cycle of the test compound with the average threshold RT-PCR cycle of the negative control. This value is called DeltaCt (ΔCt or DCt). […] As a positive control, recombinant interferon alfa-2a (Roferon-A, Hoffmann-Roche, New Jersey, USA) is taken alongside as positive control.
In a typical setting, a compound might reduce both the host RNA polymerase activity and the replicon-encoded polymerase activity. Therefore, quantification of rRNA (or any other host RNA polymerase I product) or beta-actin mRNA (or any other host RNA polymerase II) and comparison with RNA levels of the no-drug control is a relative measurement of the effect of the test compound on host RNA polymerases.
With the availability of both the HCV ΔCt data and the rRNA ΔCt, a specificity parameter can be introduced. This parameter is obtained by subtracting both ΔCt values from each other.
In another typical setting, a compound might reduce the host RNA polymerase activity, but not the host DNA polymerase activity. Therefore, quantification of rDNA or beta-actin DNA (or any other host DNA fragment) and comparison with DNA levels of the no-drug control is a relative measurement of the inhibitory effect of the test compound on cellular DNA polymerases
With the availability of both the HCV ΔCt data and the rDNA ΔCt, a specificity parameter can be introduced. This parameter is obtained by subtracting both ΔCt values from each other. […] However, compounds with a ΔΔCt value of less than 2, but with limited molecular cytotoxicty (rDNA ΔCT between 0 and 2) may be desired. […]

Compound	EC90 [1] [µM]	EC90 (read-out: EC90 (1-log reduction of replicon HCV RNA, 3.3 Ct) (converted)) [µM]
Nc1ccn([C@@H]2O[C@H](CO)[C@@H](O)C2(F)F)c(=O)n1 [Gemcitabine, β-D-2′,2′-difuoro-2′ deoxycytidine, reference compound]	~0.3	–
Nc1ccn([C@@H]2O[C@H](CO)[C@@H](O)[C@H]2F)c(=O)n1 [2′-Deoxy-2′F-Cytidine, 2′-deoxy-2′-fluorocytidine]	~10	~5
